According to ChEMBL document CHEMBL1201862, “PubChem BioAssay data set” (2004):
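Results reflect a 48-hour exposure of cells in 96-well plates to compound at five concentrations. GI50 = concentration required for 50% inhibition of growth.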 The source made the active and inactive calls. Cut-off read from the data, not from the text of the source: active = GI50 up to about 1.1 µM and inactive = higher.

Experiments:
Assay in all cases: NCI-60 cell line screen, 48 h
[1] = system: SW-620
[2] = system: SF-539
[3] = system: RXF 393
[4] = system: ACHN
[5] = system: U-251
[6] = system: HCT-116
[7] = system: SK-OV-3
[8] = system: DMS-114
[9] = system: SK-MEL-28
[10] = system: CCRF-CEM
[11] = system: KM12
[12] = system: OVCAR-5
[13] = system: UACC-62
[14] = system: NCI-H226
[15] = system: IGROV-1
[16] = system: MCF7
[17] = system: MDA-MB-231
[18] = system: DU-145
[19] = system: MDA-N
[20] = system: MDA-MB-435

Measured: GI50

CCCC(=O)OCC(O)CO (stereo not given)
inactive: [1] > 5000 µM | [2] > 5000 µM | [3] 3090 µM | [4] 4830 µM | [5] > 5000 µM | [6] > 5000 µM | [7] 4970 µM | [8] > 5000 µM | [9] > 5000 µM | [10] 4500 µM | [11] > 5000 µM | [12] 2810 µM | [13] 2170 µM | [14] > 5000 µM | [15] > 5000 µM

CC(=O)Nc1ccc(-c2nnc(SCC(=O)Nc3ccc([N+](=O)[O-])cc3)o2)cc1
inactive: [1] 16.2 µM | [2] 24.3 µM | [3] 14.7 µM | [4] 15.4 µM | [5] 14.7 µM | [6] 12.5 µM | [7] 17.8 µM | [8] 3.3 µM | [9] 14.3 µM | [10] 12.6 µM | [11] 14.5 µM | [12] 19.8 µM | [13] 9.84 µM | [14] 15.7 µM | [15] 11 µM

CCOc1ccc(C2=NN(CC)C(=O)C(C3C(=O)N(c4ccccc4)N=C3C)C2)cc1 (stereo not given)
inactive: [1] > 100 µM | [2] > 100 µM | [3] > 100 µM | [4] > 100 µM | [5] > 100 µM | [6] > 100 µM | [7] > 100 µM | [8] > 100 µM | [9] > 100 µM | [10] > 100 µM | [11] > 100 µM | [12] > 100 µM | [13] > 100 µM | [14] > 100 µM | [15] > 100 µM

COC(=O)C1=C(c2cc(OC)c(OC)c(OC)c2)OC(c2ccc3c(c2)OCO3)C1 (stereo not given)
inactive: [1] 18.1 µM | [2] 20.7 µM | [3] 49 µM | [4] 26.3 µM | [5] 19.6 µM | [6] 32.9 µM | [7] 45.5 µM | [8] 13.9 µM | [9] 48 µM | [10] 27.6 µM | [11] 13.2 µM | [12] 64.4 µM | [13] 5.05 µM | [14] 56 µM | [15] 2.12 µM

CCc1cccc(C)c1N1C(=O)C(=O)C(c2nc3ccccc3o2)/C(=N/NC(=S)NN)C1=O (stereo not given)
inactive: [1] > 100 µM | [2] > 100 µM | [3] > 100 µM | [4] > 100 µM | [5] > 100 µM | [6] > 100 µM | [7] > 100 µM | [8] > 100 µM | [9] > 100 µM | [10] > 100 µM | [11] > 100 µM | [12] > 100 µM | [13] > 100 µM | [14] > 100 µM | [15] > 100 µM

COc1ccc2c(c1[N+](=O)[O-])CC[C@@H]1[C@@H]2CC[C@]2(C)C(=O)CC[C@@H]12
inactive: [1] > 25 µM | [16] > 25 µM | [2] > 25 µM | [17] > 25 µM | [18] > 25 µM | [3] > 25 µM | [4] > 25 µM | [19] > 925 µM | [5] > 25 µM | [6] 20.3 µM | [20] > 25 µM | [7] 7.41 µM | [8] 18.4 µM | [9] 20.7 µM | [10] 9.06 µM | [11] > 25 µM | [12] > 25 µM | [13] 18.3 µM | [14] 23.1 µM | [15] > 18 µM
